The values below come from ChEMBL document CHEMBL3734721 (J Med Chem, 2015).

Data set [1] is described as follows: Chemical stability of compound in DMSO assessed as compound remaining at 10 mg/ml after 24 days at room temperature under air. It is filed as physicochemical. The conditions noted are these: read-out: Stability.
Data set [2] is described as follows: Intrinsic clearance in human liver microsomes at 1 uM by HPLC/MS/MS analysis. It is filed as ADME. The conditions noted are these: read-out: CLH.
Data set [3] addresses T1, Muscarinic acetylcholine receptor M1 (Homo sapiens, UniProt P11229).
T1 sequence (P11229 whole entry): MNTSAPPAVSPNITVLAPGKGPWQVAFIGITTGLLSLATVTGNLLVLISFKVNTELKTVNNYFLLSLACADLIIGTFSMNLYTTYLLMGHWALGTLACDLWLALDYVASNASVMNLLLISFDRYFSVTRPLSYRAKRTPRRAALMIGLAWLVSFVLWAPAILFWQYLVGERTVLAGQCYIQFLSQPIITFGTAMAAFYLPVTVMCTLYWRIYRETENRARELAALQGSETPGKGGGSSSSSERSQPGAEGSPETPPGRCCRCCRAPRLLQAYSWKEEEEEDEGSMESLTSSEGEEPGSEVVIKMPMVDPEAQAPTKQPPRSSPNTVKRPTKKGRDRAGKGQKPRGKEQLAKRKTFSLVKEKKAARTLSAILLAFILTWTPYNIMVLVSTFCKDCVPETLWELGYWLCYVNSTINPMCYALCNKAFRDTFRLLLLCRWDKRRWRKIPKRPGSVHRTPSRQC
In words: Antagonist activity at human wild-type M1 receptor expressed in CHO-K1 cells assessed as acetylcholine-induced calcium by FDSS assay. The data set is classed as functional, cell-based.

The target of data set [4] is T2, Muscarinic acetylcholine receptor M2 (Homo sapiens, UniProt P08172).
T2 sequence (P08172 whole entry): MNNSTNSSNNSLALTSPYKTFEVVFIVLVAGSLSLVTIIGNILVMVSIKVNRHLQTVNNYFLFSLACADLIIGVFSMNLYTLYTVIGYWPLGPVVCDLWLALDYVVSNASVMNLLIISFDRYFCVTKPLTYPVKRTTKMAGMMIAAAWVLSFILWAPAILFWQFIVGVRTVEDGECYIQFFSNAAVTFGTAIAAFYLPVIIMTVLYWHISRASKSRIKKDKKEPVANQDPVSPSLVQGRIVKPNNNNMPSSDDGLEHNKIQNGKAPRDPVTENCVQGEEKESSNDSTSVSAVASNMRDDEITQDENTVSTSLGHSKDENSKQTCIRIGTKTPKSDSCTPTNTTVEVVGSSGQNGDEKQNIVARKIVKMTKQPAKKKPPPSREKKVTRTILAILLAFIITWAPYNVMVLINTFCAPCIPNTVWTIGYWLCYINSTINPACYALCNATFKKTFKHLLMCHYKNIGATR
Put plainly: Agonist activity at human wild-type M2 receptor expressed in CHO-K1 cells assessed as cAMP level by HTRF assay. It is filed as functional, cell-based. (In general: Changes in cAMP serve as a functional read-out for many G protein-coupled receptors.)

Data set [5] can be described thus: Fraction unbound in mouse plasma at 5 uM after 4.5 hrs by LC-MS/MS analysis. The data set is classed as ADME, cell-free.
Data set [6] can be described thus: Ratio of drug level in brain to plasma in Swiss mouse at 5 mg/kg, sc. It is filed as ADME, organism-based. The conditions noted are these: read-out: BPR.
Data set [7] in a line: Fraction unbound in rat brain at 5 uM after 5 hrs by LC-MS/MS analysis. It is filed as ADME, tissue-based.
The next data set deals with Liver microsome. In words: Metabolic stability in human liver microsomes assessed as CN adduct formation at 40 uM for 1 hr by LC/MS analysis. It is filed as ADME. On the technique in general: Liver microsomes are vesicles of endoplasmic reticulum, rich in cytochrome P450 enzymes.
Data set [8] deals with T3, Alpha-2C adrenergic receptor (Homo sapiens, UniProt P18825).
T3 sequence (P18825 whole entry): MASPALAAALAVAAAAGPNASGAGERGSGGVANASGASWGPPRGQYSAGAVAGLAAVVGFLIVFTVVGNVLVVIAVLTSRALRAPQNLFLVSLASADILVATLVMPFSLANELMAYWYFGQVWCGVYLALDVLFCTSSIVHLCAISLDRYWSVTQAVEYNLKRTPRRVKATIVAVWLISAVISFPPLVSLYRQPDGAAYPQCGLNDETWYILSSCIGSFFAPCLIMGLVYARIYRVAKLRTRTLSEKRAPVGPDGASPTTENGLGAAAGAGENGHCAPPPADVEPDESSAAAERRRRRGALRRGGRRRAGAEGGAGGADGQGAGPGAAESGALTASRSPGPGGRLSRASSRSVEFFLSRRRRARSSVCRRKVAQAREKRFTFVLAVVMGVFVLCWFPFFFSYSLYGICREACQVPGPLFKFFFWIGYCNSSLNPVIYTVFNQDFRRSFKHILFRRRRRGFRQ
In words: Antagonist activity at human wild-type alpha 2C receptor expressed in CHO-K1 cells assessed as epinephrine-induced cAMP by HTRF assay. The data set is classed as functional, cell-based. (In TR-FRET formats the signal depends on donor and acceptor labels being close together.)

In data set [9] the target is 5-hydroxytryptamine receptor 1B (Homo sapiens, UniProt P28222). In words: Agonist activity at human 5-HT1B receptor expressed in CHO-K1 cells assessed as cAMP level by HTRF assay. The data set is classed as functional, cell-based.
The nature of data set [10]: Kinetic solubility of compound in phosphate buffer at pH 7.4 for 4 hrs by UPLC/UV analysis. The data set is classed as physicochemical. As to conditions: read-out: Kinetic_solubility.
For a further data set, the target named is T4, Adenosine receptor A3 (Homo sapiens, UniProt P0DMS8).
T4 sequence (P0DMS8 whole entry): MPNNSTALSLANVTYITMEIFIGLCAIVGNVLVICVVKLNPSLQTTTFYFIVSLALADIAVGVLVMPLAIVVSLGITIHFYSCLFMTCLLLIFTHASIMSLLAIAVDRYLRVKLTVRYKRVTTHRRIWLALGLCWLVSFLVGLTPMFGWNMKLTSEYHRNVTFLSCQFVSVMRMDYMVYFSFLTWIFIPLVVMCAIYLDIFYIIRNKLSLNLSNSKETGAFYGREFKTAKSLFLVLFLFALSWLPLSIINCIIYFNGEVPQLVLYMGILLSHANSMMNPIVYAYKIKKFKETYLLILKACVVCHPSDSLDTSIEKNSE
Put plainly: Agonist activity at human wild-type A3 receptor expressed in CHO-K1 cells assessed as cAMP level by HTRF assay. The data set is classed as functional, cell-based.

In data set [11] the target is T5, Mu-type opioid receptor (Homo sapiens, UniProt P35372). In words: Agonist activity at human wild-type opioid-mu receptor expressed in CHO-K1 cells assessed as cAMP level by HTRF assay. The data set is classed as functional, cell-based.
A short description of data set [12]: Fraction unbound in rat plasma at 5 uM after 4.5 hrs by LC-MS/MS analysis. The data set is classed as ADME, cell-free.
In data set [13] the target is T5, Mu-type opioid receptor. Put plainly: Antagonist activity at human wild-type opioid-mu receptor expressed in CHO-K1 cells assessed as DAMGO-induced cAMP by HTRF assay. It is filed as functional, cell-based.

Values after ≈ are worked out from the molar mass of the structure shown.

T5 sequence (P35372 whole entry): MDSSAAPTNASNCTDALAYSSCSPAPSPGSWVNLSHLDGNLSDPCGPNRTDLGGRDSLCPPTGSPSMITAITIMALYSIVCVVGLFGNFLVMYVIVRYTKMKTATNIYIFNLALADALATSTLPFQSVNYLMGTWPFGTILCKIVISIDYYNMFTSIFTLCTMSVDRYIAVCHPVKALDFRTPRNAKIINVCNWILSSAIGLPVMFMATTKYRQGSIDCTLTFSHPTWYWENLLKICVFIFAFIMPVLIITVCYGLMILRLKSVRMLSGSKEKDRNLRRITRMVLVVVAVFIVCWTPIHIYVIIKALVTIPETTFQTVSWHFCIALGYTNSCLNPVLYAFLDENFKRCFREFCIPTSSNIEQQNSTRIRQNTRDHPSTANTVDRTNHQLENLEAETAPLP
5-hydroxytryptamine receptor 1B, sequence (P28222 whole entry): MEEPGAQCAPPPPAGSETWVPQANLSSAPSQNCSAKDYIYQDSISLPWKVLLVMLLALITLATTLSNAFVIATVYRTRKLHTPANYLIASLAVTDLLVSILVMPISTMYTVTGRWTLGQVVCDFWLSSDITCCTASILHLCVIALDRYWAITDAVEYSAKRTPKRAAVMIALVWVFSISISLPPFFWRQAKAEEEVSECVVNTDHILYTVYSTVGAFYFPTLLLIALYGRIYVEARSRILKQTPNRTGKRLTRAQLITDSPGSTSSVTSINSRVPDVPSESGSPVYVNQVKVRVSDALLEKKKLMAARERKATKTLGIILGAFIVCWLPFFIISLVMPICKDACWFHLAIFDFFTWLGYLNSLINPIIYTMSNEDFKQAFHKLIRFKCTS

On to `CB1C=Cc2cccc(OCC(O)CNC(C)C)c2N1` (stereo not given), for which the remaining at 576 h, 10 mg/ml in [1] is 98%. Also, the microsomal CLint at 1 µM in data set [2] was 8.7 µL/min/mg. In addition, the half-inhibitory concentration (IC50) (in data set [3]; in [8]; on Mu-type opioid receptor [13]) was above 5.01 µM each time. The concentration for a half-maximal effect (EC50) (in data set [4]; in data set [9]; at Adenosine receptor A3; at Mu-type opioid receptor [11]) was above 5.01 µM throughout. Also, the fraction unbound (commonly the share of the substance not bound to proteins or other matrix) at 4.5 h, 5 µM came to 0.074 in [5] and 0.096 in data set [12]. Besides, in data set [6], the Kp came out at 13. In data set [7], the unbound share (fraction unbound) at 5 h, 5 µM was 0.0055. The Stability result in the data set with Liver microsome is on record as “Stable”. Also, the solubility kinetic at 4 h in data set [10] was determined as 699 µM (≈ 192 µg/mL).
Consider `CB1C=Cc2c(cccc2OCC(O)CN(C)C)N1` (stereo not given), for which the remaining at 576 h, 10 mg/ml in data set [1] is 97%. In addition, the microsomal CLint at 1 µM in [2] is 11 µL/min/mg. Also, the half-inhibitory concentration (IC50) (in data set [3]; in data set [8]; on Mu-type opioid receptor [13]) was above 5.01 µM each time. Besides, the half-maximal effective concentration (EC50) (in data set [4]; in data set [9]; at Adenosine receptor A3; at Mu-type opioid receptor [11]) was above 5.01 µM throughout. Besides, the unbound share (fraction unbound) at 4.5 h, 5 µM in [5] amounted to 0.21; in data set [12], 0.29. In addition, the Kp in [6] turned out to be 19. Further, the fraction unbound at 5 h, 5 µM in [7] stood at 0.019. For the same molecule, in the data set on Liver microsome, the Stability result is listed as “Stable”. Moreover, the solubility kinetic at 4 h in [10] was determined as 647 µM (≈ 168 µg/mL).
